The numbers were not newly measured in paper PMC3853759 (International Journal of Pharmaceutical Investigation, 2013), which cites them from elsewhere.

With `[Zn]` [Zn, Zinc], the “oral Zn dose producing acute toxicity” value in the data set on mice is 86 to 605 mg/kg; in the data set with rats, 237 to 623 mg/kg.
